Measurements: paper PMC9721423, “Novel benzo chromene derivatives: design, synthesis, molecular docking, cell cycle arrest, and apoptosis induction in human acute myeloid leukemia HL-60 cells” (Journal of Enzyme Inhibition and Medicinal Chemistry, 2022)
Where two headings read alike, the source gives them in different places.

Legend:
IGROV1 = assay: cells; design: species or system NCI-60 human tumour cell lines; NCI-60 five-dose growth inhibition screen, sulforhodamine B protein stain; settings: Homo sapiens, IGROV-1, 48 h
Description: (§1) All the newly synthesised 28 compounds were selected for single-dose testing. NCI60 single-dose testing is performed in all 60 cell lines according to the reported assay (National Cancer Institute, https://dtp.cancer.gov/) (National Cancer Institute https://dtp.cancer.gov/discovery_development/nci-60/), compounds were dissolved in DMSO: glycerol […] and are stored in a −70 °C freezer. The prepared compounds were added at single concentration of 1 0^−5 M and the culture was incubated for 48 h. End point determinations were made with a protein binding dye, sulforhodamine B (SRB). The human tumour cell lines were derived from nine different cancer types: leukaemia, melanoma, lung, colon, central nervous system (CNS), ovarian, renal, prostate, and breast cancers. Dose–response curves for these compounds were created by plotting the percentage growth (PGs or % growth) against log10 of the corresponding concentration for every cell line. Three response parameters, GI50 (Median Growth Inhibitory Concentration), TGI (Total Growth Inhibitory Concentration), and LC50 (Median Lethal Concentration) were calculated[54] (National Cancer Institute, https://dtp.cancer.gov/discovery_development/nci-60/) (National Cancer Institute, https://dtp.cancer.gov/)[55] for compounds 5a and 6a. […] Furthermore, the average sensitivity of all cell lines towards the compound is termed as the full panel mean graph midpoints (MG-MID). The ratio obtained by dividing the full panel mean graph midpoints (MG-MID) concentration by the individual subpanel MG-MID concentrations (obtained as the average sensitivity of all cell lines of a particular subpanel towards the test compound) is considered a criterion for the compound selectivity towards the corresponding cell line. Ratios greater than 6 indicate high selectivity while ratios between 3 and 6 refer to moderate selectivity whereas compounds not meeting either of these criteria were rated non-selective[56].

COLO 205 = assay: cells; design: species or system NCI-60 human tumour cell lines; NCI-60 five-dose growth inhibition screen, sulforhodamine B protein stain; settings: Homo sapiens, COLO 205, 48 h
Description: as §1

LOX IMVI = assay: cells; design: species or system NCI-60 human tumour cell lines; NCI-60 five-dose growth inhibition screen, sulforhodamine B protein stain; settings: Homo sapiens, LOX IMVI, 48 h
Description: as §1

SNB-75 = assay: cells; design: species or system NCI-60 human tumour cell lines; NCI-60 five-dose growth inhibition screen, sulforhodamine B protein stain; settings: Homo sapiens, SNB-75, 48 h
Description: as §1

ACHN = assay: cells; design: species or system NCI-60 human tumour cell lines; NCI-60 five-dose growth inhibition screen, sulforhodamine B protein stain; settings: Homo sapiens, ACHN, 48 h
Description: as §1

MALME-3M = assay: cells; design: species or system NCI-60 human tumour cell lines; NCI-60 five-dose growth inhibition screen, sulforhodamine B protein stain; settings: Homo sapiens, Malme-3M, 48 h
Description: as §1

SF-539 = assay: cells; design: species or system NCI-60 human tumour cell lines; NCI-60 five-dose growth inhibition screen, sulforhodamine B protein stain; settings: Homo sapiens, SF-539, 48 h
Description: as §1

U251 = assay: cells; design: species or system NCI-60 human tumour cell lines; NCI-60 five-dose growth inhibition screen, sulforhodamine B protein stain; settings: Homo sapiens, U-251, 48 h
Description: as §1

HT29 = assay: cells; design: species or system NCI-60 human tumour cell lines; NCI-60 five-dose growth inhibition screen, sulforhodamine B protein stain; settings: Homo sapiens, HT-29, 48 h
Description: as §1

HCC-2998 = assay: cells; design: species or system NCI-60 human tumour cell lines; NCI-60 five-dose growth inhibition screen, sulforhodamine B protein stain; settings: Homo sapiens, HCC 2998, 48 h
Description: as §1

NCI-H23 = assay: cells; design: species or system NCI-60 human tumour cell lines; NCI-60 five-dose growth inhibition screen, sulforhodamine B protein stain; settings: Homo sapiens, NCI-H23, 48 h
Description: as §1

SK-MEL-2 = assay: cells; design: species or system NCI-60 human tumour cell lines; NCI-60 five-dose growth inhibition screen, sulforhodamine B protein stain; settings: Homo sapiens, SK-MEL-2, 48 h
Description: as §1

HCT-15 = assay: cells; design: species or system NCI-60 human tumour cell lines; NCI-60 five-dose growth inhibition screen, sulforhodamine B protein stain; settings: Homo sapiens, HCT-15, 48 h
Description: as §1

HOP-92 = assay: cells; design: species or system NCI-60 human tumour cell lines; NCI-60 five-dose growth inhibition screen, sulforhodamine B protein stain; settings: Homo sapiens, HOP-92, 48 h
Description: as §1

NCI-H322M = assay: cells; design: species or system NCI-60 human tumour cell lines; NCI-60 five-dose growth inhibition screen, sulforhodamine B protein stain; settings: Homo sapiens, NCI-H322M, 48 h
Description: as §1

KM12 = assay: cells; design: species or system NCI-60 human tumour cell lines; NCI-60 five-dose growth inhibition screen, sulforhodamine B protein stain; settings: Homo sapiens, KM12, 48 h
Description: as §1

CDK-2 = target: T1, CDK-2 (Homo sapiens, UniProt P24941); assay: Kinase-Glo MAX luminescence kinase assay, CDK-2/cyclin A2 kit; assay type: biochemical; settings: read-out: CDK-2/ cyclin A2 IC50 (μM) ± SD
T1 construct: gene CDK2; with cyclin A2

Question: `N=C(NO)C1=C(N)Oc2c(ccc3ccccc23)C1c1ccccc1` (stereo not shown) [5a, 2-Amino-4-phenyl-N-hydroxy-4H-benzo[h]chromene-3-carboxamidine] was tested. Which GI50 (IGROV1; read-out: GI50 5a) did it give?
Answer: 330 nM

Question: What about the GI50 (COLO 205; read-out: GI50 5a) of the same compound?
Answer: 460 nM

Question: And the GI50 (LOX IMVI; read-out: GI50 5a)?
Answer: 540 nM

Question: And the GI50 (SNB-75; read-out: GI50 5a)?
Answer: 80 nM

Question: And the GI50 (ACHN; read-out: GI50 5a)?
Answer: 370 nM

Question: What about the GI50 (MALME-3M; read-out: GI50 5a) of the same compound?
Answer: 15600 nM

Question: What about the GI50 (SF-539; read-out: GI50 5a) of the same compound?
Answer: 210 nM

Question: And the GI50 (U251; read-out: GI50 5a)?
Answer: 380 nM

Question: And the GI50 (HT29; read-out: GI50 5a)?
Answer: 480 nM

Question: What about the GI50 (HCC-2998; read-out: GI50 5a) of the same compound?
Answer: 370 nM

Question: What about the GI50 (NCI-H23; read-out: GI50 5a) of the same compound?
Answer: 470 nM

Question: And the GI50 (SK-MEL-2; read-out: GI50 5a)?
Answer: 28700 nM

Question: And the GI50 (HCT-15; read-out: GI50 5a)?
Answer: 130 nM

Question: And the GI50 (HOP-92; read-out: GI50 5a)?
Answer: 820 nM

Question: And the GI50 (NCI-H322M; read-out: GI50 5a)?
Answer: 660 nM

Question: And the GI50 (KM12; read-out: GI50 5a)?
Answer: 220 nM

Question: And the IC50 (CDK-2)?
Answer: 0.171 µM

Question: What does the source list for `CC(=O)NC1=C(C#N)C(c2ccccc2)c2ccc3ccccc3c2O1` (stereo not shown) [6a, N-(3-Cyano-4-phenyl-4H-benzo[h]chromen-2-yl)acetamide]?
Answer: GI50 (IGROV1; read-out: GI50 6a): 530 nM; GI50 (COLO 205; read-out: GI50 6a): 610 nM; GI50 (LOX IMVI; read-out: GI50 6a): 600 nM; GI50 (SNB-75; read-out: GI50 6a): 240 nM; GI50 (ACHN; read-out: GI50 6a): 550 nM; GI50 (MALME-3M; read-out: GI50 6a): 670 nM; GI50 (SF-539; read-out: GI50 6a): 350 nM; GI50 (U251; read-out: GI50 6a): 490 nM; GI50 (HT29; read-out: GI50 6a): 380 nM; GI50 (HCC-2998; read-out: GI50 6a): 1430 nM; GI50 (NCI-H23; read-out: GI50 6a): 730 nM; GI50 (SK-MEL-2; read-out: GI50 6a): 650 nM; GI50 (HCT-15; read-out: GI50 6a): 510 nM; GI50 (HOP-92; read-out: GI50 6a): 610 nM; GI50 (NCI-H322M; read-out: GI50 6a): 820 nM; GI50 (KM12; read-out: GI50 6a): 430 nM; IC50 (CDK-2): 0.301 µM
